Measured values reported in patent publication US20220235065A1 (Epizyme, Inc., priority 2016, published 2022).
Structures can show the parent of a compound that is named as a salt.

Legend:
EHMT1 = target: T1, EHMT1 (Homo sapiens, UniProt Q9H9B1); experiment: EHMT1 PEP (EHMT1 peptide enzyme assay); format: biochemical; conditions: peptide substrate enzyme assay
T1 sequence (Q9H9B1 1-1298): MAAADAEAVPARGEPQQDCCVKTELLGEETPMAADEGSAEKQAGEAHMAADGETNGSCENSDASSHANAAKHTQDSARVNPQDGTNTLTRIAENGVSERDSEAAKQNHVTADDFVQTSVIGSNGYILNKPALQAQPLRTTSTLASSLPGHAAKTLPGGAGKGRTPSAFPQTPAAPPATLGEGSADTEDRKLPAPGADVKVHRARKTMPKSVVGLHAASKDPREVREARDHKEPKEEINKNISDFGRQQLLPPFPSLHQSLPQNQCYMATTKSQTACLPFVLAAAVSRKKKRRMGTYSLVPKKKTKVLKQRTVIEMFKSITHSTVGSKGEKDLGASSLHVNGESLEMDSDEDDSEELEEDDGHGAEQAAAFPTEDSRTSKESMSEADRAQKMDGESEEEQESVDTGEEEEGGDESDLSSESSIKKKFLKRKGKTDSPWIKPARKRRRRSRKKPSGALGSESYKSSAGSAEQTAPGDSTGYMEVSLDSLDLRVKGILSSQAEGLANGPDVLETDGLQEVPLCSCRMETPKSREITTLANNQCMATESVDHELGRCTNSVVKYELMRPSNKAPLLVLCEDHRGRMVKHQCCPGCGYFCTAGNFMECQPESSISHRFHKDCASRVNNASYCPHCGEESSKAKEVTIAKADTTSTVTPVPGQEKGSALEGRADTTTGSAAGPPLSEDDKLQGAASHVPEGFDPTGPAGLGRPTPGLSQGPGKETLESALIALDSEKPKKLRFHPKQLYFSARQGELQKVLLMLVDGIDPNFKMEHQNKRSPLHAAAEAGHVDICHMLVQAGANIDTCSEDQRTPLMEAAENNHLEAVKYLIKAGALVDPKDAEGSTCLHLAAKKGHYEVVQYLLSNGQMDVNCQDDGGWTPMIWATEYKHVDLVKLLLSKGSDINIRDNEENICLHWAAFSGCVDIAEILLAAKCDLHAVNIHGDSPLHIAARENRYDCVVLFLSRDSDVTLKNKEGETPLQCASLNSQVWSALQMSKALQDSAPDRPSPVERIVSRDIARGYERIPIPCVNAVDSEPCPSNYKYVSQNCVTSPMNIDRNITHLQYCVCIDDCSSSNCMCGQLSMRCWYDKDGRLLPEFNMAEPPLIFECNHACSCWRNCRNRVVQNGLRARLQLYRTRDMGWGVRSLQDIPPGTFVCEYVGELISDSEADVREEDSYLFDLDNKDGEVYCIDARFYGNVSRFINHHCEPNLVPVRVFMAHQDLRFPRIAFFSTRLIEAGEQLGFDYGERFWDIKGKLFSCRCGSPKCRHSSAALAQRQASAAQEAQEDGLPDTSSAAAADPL

[1] = tested on: H3K9me2 in MDA-MB-231 cells; experiment: MDA-MB-231 H3K9me2 in-cell western assay; format: cell-based; conditions: Homo sapiens, read-out: EHMT2 ICW (IC50 μM)
In short: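 MDA-MB-231 cells (3,000/well) exposed to compound for two consecutive 48 h periods at 37 °C, then fixed and stained for H3K9me2, with DRAQ5 as DNA stain and infrared read at 700/800 nm. Percent inhibition was set between DMSO and UNC0638 control wells. IC50 came from triplicate dose–response fits with a four-parameter model, top 100%, bottom 0%.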

IC50 (EHMT1) [µM] | IC50 [1] [µM] | Compound
1 to 10 | > 10 | CNc1cc(C)nc(Nc2ccc(OC)c(-n3ncc4c3CCCC4)c2)n1 [Compound 26, 2-N-[4-methoxy-3-(4,5,6,7-tetrahydro-1H-indazol-1-yl)phenyl]-4-N,6-dimethylpyrimidine-2,4-diamine trifluoroacetic acid]
0.1 to 1 | 1 to 10 | CNc1cc(C)nc(Nc2ccc(F)c(-n3cc(CN4CCC4)cn3)c2F)n1 [Compound 315]
< 0.1 | 0.1 to 1 | CNc1cc(C)nc(Nc2ccc(OC)c(-c3cc4[nH]ccc4c(C#N)n3)c2)n1 [Compound 292]
> 10 | > 10 | CNc1cc(C)nc(Nc2ccc(OC)c(-c3cccc4[nH]ccc34)c2)n1 [Compound 33, 2-N-[3-(1H-indol-4-yl)-4-methoxyphenyl]-4-N,6-dimethylpyrimidine-2,4-diamine hydrochloride]
< 0.1 | 1 to 10 | CNc1cc(C)nc(Nc2ccc(OC)c(-n3cc(CN)cn3)c2)n1 [Compound 23, 2-N-[3-[4-(aminomethyl)-1H-pyrazol-1-yl]-4-methoxyphenyl]-4-N,6-dimethylpyrimidine-2,4-diamine; trifluoroacetic acid]
0.1 to 1 | 1 to 10 | CNc1nc2cc(-c3cc4[nH]ccc4cn3)c(C)cc2n1C [Compound 257]
< 0.1 | < 0.1 | CNCc1cnn(-c2cc(Nc3nc(C)cc(NC)n3)ccc2Cl)c1 [Compound 262, N2-(4-chloro-3-(4-((methylamino)methyl)-1H-pyrazol-1-yl)phenyl)-N4,6-dimethylpyrimidine-2,4-diamine]
> 10 | > 10 | CNc1cc(C)nc(Nc2ccc(OC)c(-c3c(C)nc4cnccn34)c2)n1 [Compound 39]
< 0.1 | 0.1 to 1 | CNC1=Nc2cc(-c3cc4[nH]ccc4nc3C)c(OC)cc2C12CCC2 [Compound 300]
< 0.1 | < 0.1 | CNCc1cnn(-c2cc(Nc3nc(C)cc(NC)n3)ccc2C)c1 [Compound 286, N4,6-dimethyl-N2-(4-methyl-3-(4-((methylamino)methyl)-1H-pyrazol-1-yl)phenyl)pyrimidine-2,4-diamine]
0.1 to 1 | 1 to 10 | CNc1cc(C)nc(Nc2ccc(OC)c(-n3cc(C4CC4)cn3)c2)n1 [Compound 14, 2-N-[3-(4-cyclopropyl-1H-pyrazol-1-yl)-4-methoxyphenyl]-4-N,6-dimethylpyrimidine-2,4-diamine]
1 to 10 | > 10 | CNc1cc(C)nc(Nc2ccc(C)c(-c3[nH]c4cnccc4c3C#N)c2)n1 [Compound 271]
< 0.1 | < 0.1 | CNc1cc(C)nc(Nc2ccc(Cl)c(-n3cc(C4CCCN4)cn3)c2)n1 (stereo not shown) [Compound 330]
< 0.1 | 0.1 to 1 | CNc1cc(C)nc(Nc2ccc(OC)c(-c3[nH]c4cnccc4c3CNC(C)=O)c2)n1 [Compound 316]
0.1 to 1 | 1 to 10 | CNc1cc(C)nc(Nc2ccc(Cl)c(C(=O)Nc3nccs3)c2)n1 [Compound 246]
0.1 to 1 | 1 to 10 | CNCc1cc(-c2cc(Nc3nc(C)cc(NC)n3)ccc2OC)on1 [Compound 324]
1 to 10 | > 10 | CNc1cc(C)nc(Nc2ccc(C)c(C(=O)Nc3cn(C)nn3)c2)n1 [Compound 299]
1 to 10 | 1 to 10 | CCNc1c[nH]c(=O)c(-c2cc(Nc3nc(C)cc(NC)n3)ccc2C)c1 [Compound 276]
1 to 10 | 1 to 10 | CNc1cc(C)nc(Nc2cnc(OC)c(-n3ncc4c3CCNC4)c2)n1 [Compound 19]
> 10 | > 10 | CNc1cc(C)nc(Nc2ccc(Cl)c(C(=O)Nc3ccnnc3)c2)n1 [Compound 245]
0.1 to 1 | > 10 | CNc1nc2cc(-c3[nH]c4cnccc4c3C)c(OC)cc2n1C [Compound 304]
1 to 10 | > 10 | Cc1cc(NC2CCNCC2)ncc1-c1cc2[nH]ccc2cn1 [Compound 247]
0.1 to 1 | 1 to 10 | CNc1cc(C)nc(Nc2ccc(OC)c(-c3cc(C4CC4)on3)c2)n1 [Compound 13]
